Measured values: US8993574B2, “Pyrrole antifungal agents” (F2G Ltd, priority 2008, dated 2015)
≈ marks a conversion by molar mass, not a printed value.

Legend:
Type in all cases: cell-based
Aspergillus flavus [1] = test: MIC, RPMI medium; details: MIC banded into grades; for MIC: Aspergillus flavus, read-out: MIC grade, A. flavus
Summary of the method: (§1)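 Broth microdilution in RPMI with 2% glucose, 0.135 M MOPS pH 7.0; compounds as doubling dilutions, 50-0.05 mg/L, inoculum 1−2×10^4 cfu/mL. Incubated 24-48 h at 35° C; growth by OD 485 nm. MIC is lowest concentration giving >80% growth inhibition versus drug-free control.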

Aspergillus terreus AT4 [2] = test: MIC, RPMI medium; details: for MIC: Aspergillus terreus, AT4, MIC banded into grades, read-out: MIC grade, A. terreus
Summary of the method: as §1

[3] = tested on: Aspergillus fumigatus AF293; test: MIC, RPMI medium; details: for MIC: Aspergillus fumigatus, AF293, MIC banded into grades, read-out: MIC grade, A. fumigatus
Summary of the method: as §1

Aspergillus niger [4] = test: MIC, RPMI medium; details: MIC banded into grades; for MIC: Aspergillus niger, read-out: MIC grade, A. niger
Summary of the method: as §1

[5] = tested on: Aspergillus fumigatus AF210; test: MIC, RPMI medium; details: for MIC: Aspergillus fumigatus, AF210, MIC banded into grades, read-out: MIC grade, A. fumigatus 210
Summary of the method: as §1

Aspergillus terreus AT49 [6] = test: MIC, RPMI medium; details: for MIC: Aspergillus terreus, AT49, MIC banded into grades, read-out: MIC grade, A. terreus 49
Summary of the method: as §1

Aspergillus flavus [7] = test: MIC, YAG medium; details: 24 h at 35° C, MIC banded into grades; for MIC: Aspergillus flavus, 24 h, read-out: MIC grade, A. flavus
Summary of the method: (§2)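 Growth inhibition was measured by absorbance at 485 nm following 24 h at 35° C. Spores harvested after 5 days on Sabouraud agar served as inoculum (1−2×10^4 cfu/mL, YAG medium). The lowest drug level producing >70% inhibition was taken as MIC.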

Aspergillus terreus AT4 [8] = test: MIC, YAG medium; details: 24 h at 35° C, MIC banded into grades; for MIC: Aspergillus terreus, read-out: MIC grade, A. terreus
Summary of the method: as §2

[9] = tested on: Aspergillus fumigatus AF293; test: MIC, YAG medium; details: 24 h at 35° C, MIC banded into grades; for MIC: Aspergillus fumigatus, read-out: MIC grade, A. fumigatus
Summary of the method: as §2

Aspergillus niger [10] = test: MIC, YAG medium; details: 24 h at 35° C, MIC banded into grades; for MIC: Aspergillus niger, read-out: MIC grade, A. niger
Summary of the method: as §2

[11] = tested on: Aspergillus fumigatus AF210; test: MIC, YAG medium; details: 24 h at 35° C, MIC banded into grades; for MIC: Aspergillus fumigatus, read-out: MIC grade, A. fumigatus 210
Summary of the method: as §2

Aspergillus terreus AT49 [12] = test: MIC, YAG medium; details: 24 h at 35° C, MIC banded into grades; for MIC: Aspergillus terreus, read-out: MIC grade, A. terreus 49
Summary of the method: as §2

Row | SMILES | MIC (Aspergillus flavus [1]) [µg/mL] | MIC (Aspergillus terreus AT4 [2]) [µg/mL] | MIC [3] [µg/mL] | MIC (Aspergillus niger [4]) [µg/mL] | MIC [5] [µg/mL] | MIC (Aspergillus terreus AT49 [6]) [µg/mL] | MIC (Aspergillus flavus [7]) [µg/mL] | MIC (Aspergillus terreus AT4 [8]) [µg/mL] | MIC [9] [µg/mL] | MIC (Aspergillus niger [10]) [µg/mL] | MIC [11] [µg/mL] | MIC (Aspergillus terreus AT49 [12]) [µg/mL] | other results
1 | COCCn1c(C)cc(C(C)C)c1C(=O)C(=O)Nc1ccc(N2CCN(c3cc(C)cc(C)n3)CC2)cc1 [Example 25, N-{4-[4-(4,6-Dimethyl-pyridin-2-yl)-piperazin-1-yl]-phenyl}-2-[3-isopropyl-1-(2-methoxy-ethyl)-5-methyl-1H-pyrrol-2-yl]-2-oxo-acetamide] | > 10 | > 10 | > 10 | 1 to 10 (≈ 1.93 to 19.3 µM) | 1 to 10 (≈ 1.93 to 19.3 µM) | > 10 | 1 to 10 (≈ 1.93 to 19.3 µM) | 1 to 10 (≈ 1.93 to 19.3 µM) | < 1 | 1 to 10 (≈ 1.93 to 19.3 µM) | < 1 | 1 to 10 (≈ 1.93 to 19.3 µM) | –
2 | COCCn1c(C(C)C)cc(-c2ccccc2)c1C(=O)C(=O)Nc1ccc(N2CCN(c3cc(C)cc(C)n3)CC2)cc1 [Example 78, N-{4-[4-(4,6-Dimethyl-pyridin-2-yl)-piperizin-1-yl]-phenyl}-2-[5-isopropyl-1-(2-methoxy-ethyl)-3-phenyl-1H-pyrrol-2-yl]-2-oxo-acetamide] | – | – | – | – | – | – | – | – | – | – | – | – | MIC grade, A. flavus (Aspergillus flavus [1]): 1 (a grade of 1 represents an MIC of greater than 10 mg/L); MIC grade, A. terreus (Aspergillus terreus AT4 [2]; MIC banded into grades): 1 (a grade of 1 represents an MIC of greater than 10 mg/L); MIC grade, A. fumigatus ([3]; MIC banded into grades): 1 (a grade of 1 represents an MIC of greater than 10 mg/L); MIC grade, A. niger (Aspergillus niger [4]): 1 (a grade of 1 represents an MIC of greater than 10 mg/L); MIC grade, A. fumigatus 210 ([5]; MIC banded into grades): 1 (a grade of 1 represents an MIC of greater than 10 mg/L); MIC grade, A. terreus 49 (Aspergillus terreus AT49 [6]; MIC banded into grades): 1 (a grade of 1 represents an MIC of greater than 10 mg/L); MIC grade, A. flavus (Aspergillus flavus [7]): 1 (a grade of 1 represents an MIC of greater than 10 mg/L); MIC grade, A. terreus (Aspergillus terreus AT4 [8]): 1 (a grade of 1 represents an MIC of greater than 10 mg/L); MIC grade, A. fumigatus [9]: 1 (a grade of 1 represents an MIC of greater than 10 mg/L); MIC grade, A. niger (Aspergillus niger [10]): 1 (a grade of 1 represents an MIC of greater than 10 mg/L); MIC grade, A. fumigatus 210 [11]: 1 (a grade of 1 represents an MIC of greater than 10 mg/L); MIC grade, A. terreus 49 (Aspergillus terreus AT49 [12]): 2 (A grade of 2 represents an MIC of from 1 to 10 mg/L)
3 | COCCn1cc(-c2cccc(Cl)c2)cc1C(=O)C(=O)Nc1ccc(N2CCN(c3cc(C)cc(C)n3)CC2)cc1 [Example 71, 2-[4-(3-Chloro-phenyl)-1-(2-methoxy-ethyl)-1H-pyrrol-2-yl]-N-{4-[4-(4,6-dimethyl-pyridin-2-yl)-piperazin-1-yl]-phenyl}-2-oxo-acetamide] | > 10 | > 10 | > 10 | > 10 | > 10 | > 10 | > 10 | > 10 | > 10 | > 10 | > 10 | 1 to 10 (≈ 1.75 to 17.5 µM) | –
4 | COCCn1c(C)cc(-c2ccccc2)c1C(=O)C(=O)Nc1cccc2ccncc12 [Example 42, N-Isoquinolin-8-yl-2-[1-(2-methoxy-ethyl)-5-methyl-3-phenyl-1H-pyrrol-2-yl]-2-oxo-acetamide] | > 10 | > 10 | 1 to 10 (≈ 2.42 to 24.2 µM) | > 10 | > 10 | > 10 | > 10 | > 10 | 1 to 10 (≈ 2.42 to 24.2 µM) | > 10 | 1 to 10 (≈ 2.42 to 24.2 µM) | > 10 | –
5 | Cc1cc(-c2ccccc2)c(C(=O)C(=O)Nc2ccc(N3CCOCC3)cc2F)n1C [Example 101, 2-(1,5-Dimethyl-3-phenyl-1H-pyrrol-2-yl)-N-(2-fluoro-4-morpholin-4-yl-phenyl)-2-oxo-acetamide] | < 1 | < 1 | < 1 | < 1 | < 1 | < 1 | < 1 | < 1 | < 1 | < 1 | < 1 | < 1 | –

Now from value to compound, other results behind:

Row | MIC (Aspergillus flavus [1]) [µg/mL] | MIC (Aspergillus terreus AT4 [2]) [µg/mL] | MIC [3] [µg/mL] | MIC (Aspergillus niger [4]) [µg/mL] | MIC [5] [µg/mL] | MIC (Aspergillus terreus AT49 [6]) [µg/mL] | MIC (Aspergillus flavus [7]) [µg/mL] | MIC (Aspergillus terreus AT4 [8]) [µg/mL] | MIC [9] [µg/mL] | MIC (Aspergillus niger [10]) [µg/mL] | MIC [11] [µg/mL] | MIC (Aspergillus terreus AT49 [12]) [µg/mL] | SMILES | other results
6 | < 1 | < 1 | < 1 | < 1 | < 1 | < 1 | < 1 | < 1 | < 1 | < 1 | < 1 | < 1 | Cc1cccc(N2CCN(c3ccc(NC(=O)C(=O)c4c(-c5ccccc5)cc(C)n4C)cc3)CC2)n1 [Example 39, 2-(1,5-Dimethyl-3-phenyl-1H-pyrrol-2-yl)-N-{4-[4-(6-methyl-pyridin-2-yl)-piperazin-1-yl]-phenyl}-2-oxo-acetamide] | –
7 | < 1 | < 1 | < 1 | < 1 | < 1 | < 1 | < 1 | < 1 | < 1 | < 1 | < 1 | < 1 | Cc1cc(-c2ccccc2)c(C(=O)C(=O)Nc2ccc(N3CCN(CC(C)(C)C)CC3)cc2F)n1C [Example 112, 2-(1,5-Dimethyl-3-phenyl-1H-pyrrol-2-yl)-N-{4-[4-(2,2-dimethyl-propyl)-piperazin-1-yl]-2-fluoro-phenyl}-2-oxo-acetamide] | –
8 | < 1 | < 1 | < 1 | < 1 | < 1 | < 1 | < 1 | < 1 | < 1 | < 1 | < 1 | < 1 | Cc1cc(C)nc(N2CCN(c3ccc(NC(=O)C(=O)c4c(-c5ccco5)cc(C)n4C)cc3)CC2)c1 [Example 12, N-{4-[4-(4,6-Dimethyl-pyridin-2-yl)-piperazin-1-yl]-phenyl}-2-(3-furan-2-yl-1,5-dimethyl-1H-pyrrol-2-yl)-2-oxo-acetamide] | –
9 | > 10 | > 10 | > 10 | > 10 | > 10 | > 10 | 1 to 10 (≈ 1.73 to 17.3 µM) | 1 to 10 (≈ 1.73 to 17.3 µM) | < 1 | 1 to 10 (≈ 1.73 to 17.3 µM) | < 1 | 1 to 10 (≈ 1.73 to 17.3 µM) | COCC=CCn1c(C)cc(-c2ccccc2)c1C(=O)C(=O)Nc1ccc(N2CCN(c3cc(C)cc(C)n3)CC2)cc1 [Example 141, N-{4-[4-(4,6-Dimethyl-pyridin-2-yl)-piperazin-1-yl]-phenyl}-2-[1-(4-methoxy-but-2-enyl)-5-methyl-3-phenyl-1H-pyrrol-2-yl]-2-oxo-acetamide] | –
10 | > 10 | > 10 | > 10 | > 10 | > 10 | > 10 | > 10 | > 10 | 1 to 10 (≈ 1.71 to 17.1 µM) | > 10 | > 10 | > 10 | Cc1cc(C)nc(N2CCN(c3ccc(NC(=O)C(=O)c4c(-c5ccccc5)cc(C)n4Cc4ccncc4)cc3)CC2)c1 [Example 102, N-{4-[4-(4,6-Dimethyl-pyridin-2-yl)-piperazin-1-yl]-phenyl}-2-(5-methyl-3-phenyl-1-pyridin-4-ylmethyl-1H-pyrrol-2-yl)-2-oxo-acetamide] | –
11 | < 1 | < 1 | < 1 | < 1 | < 1 | < 1 | < 1 | < 1 | < 1 | < 1 | < 1 | < 1 | Cc1cc(-c2ccccc2)c(C(=O)C(=O)Nc2ccc(N3CCN(CC(C)C)CC3)c(F)c2)n1C [Example 118, 2-(1,5-Dimethyl-3-phenyl-1H-pyrrol-2-yl)-N-[3-fluoro-4-(4-isobutyl-piperazin-1-yl)-phenyl]-2-oxo-acetamide] | –
12 | < 1 | < 1 | < 1 | < 1 | < 1 | < 1 | < 1 | < 1 | < 1 | < 1 | < 1 | < 1 | Cc1cc(C)nc(N2CCN(c3ccc(NC(=O)C(=O)c4c(-c5ccccc5)cc(C)n4C)cc3C)CC2)c1 [Example 51, 2-(1,5-Dimethyl-3-phenyl-1H-pyrrol-2-yl)-N-{4-[4-(4,6-dimethyl-pyridin-2-yl)-piperazin-1-yl]-3-methyl-phenyl}-2-oxo-acetamide] | –
